Key:
Type in all cases: in vivo
Kochia (Kochia scoparia) = test: Test A preemergence; details: Bassia scoparia, pre-emergence, 240 h; for pest or weed control at 125 g/ha: 125 g ai/ha, Preemergence, visual injury rating after approximately 10 d, read-out: Kochia plant response rating (0 to 100 scale, 0 is no effect, 100 is complete control); for pest or weed control at 500 g/ha: 500 g ai/ha, preemergence, visual injury rating about 10 d after treatment, 0 to 100 scale (0 no effect, 100 complete control), read-out: Kochia plant response rating
Method in brief: (§1)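 Treatment is preemergence as a directed soil spray after planting, or postemergence at the one- to two-leaf stage, with test chemical in a non-phytotoxic solvent mixture plus surfactant. Plants stay in the greenhouse about 10 d before visual injury scoring on a 0 to 100 scale versus untreated controls.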

[1] = tested on: barnyardgrass (Echinochloa crus-galli); test: Test A preemergence; details: Echinochloa crus-galli, pre-emergence, 240 h; for pest or weed control at 125 g/ha: 125 g ai/ha, Preemergence, visual injury rating after approximately 10 d, read-out: Barnyardgrass plant response rating (0 to 100 scale, 0 is no effect, 100 is complete control); for pest or weed control at 500 g/ha: 500 g ai/ha, preemergence, visual injury rating about 10 d after treatment, 0 to 100 scale (0 no effect, 100 complete control), read-out: Barnyardgrass plant response rating
Method in brief: as §1

[2] = tested on: giant foxtail (Setaria faberii); test: Test A preemergence; details: Setaria faberi, pre-emergence, 240 h; for pest or weed control at 125 g/ha: 125 g ai/ha, Preemergence, visual injury rating after approximately 10 d, read-out: Foxtail, Giant plant response rating (0 to 100 scale, 0 is no effect, 100 is complete control); for pest or weed control at 500 g/ha: 500 g ai/ha, preemergence, visual injury rating about 10 d after treatment, 0 to 100 scale (0 no effect, 100 complete control), read-out: Foxtail, Giant plant response rating
Method in brief: as §1

[3] = tested on: pigweed (Amaranthus retroflexus); test: Test A preemergence; details: Amaranthus retroflexus, pre-emergence, 240 h; for pest or weed control at 125 g/ha: 125 g ai/ha, Preemergence, visual injury rating after approximately 10 d, read-out: Pigweed plant response rating (0 to 100 scale, 0 is no effect, 100 is complete control); for pest or weed control at 500 g/ha: 500 g ai/ha, preemergence, visual injury rating about 10 d after treatment, 0 to 100 scale (0 no effect, 100 complete control), read-out: Pigweed plant response rating
[4] = tested on: ragweed (common ragweed, Ambrosia elatior); test: Test A preemergence; details: Ambrosia artemisiifolia, pre-emergence, 240 h; for pest or weed control at 125 g/ha: 125 g ai/ha, Preemergence, visual injury rating after approximately 10 d, read-out: Ragweed plant response rating (0 to 100 scale, 0 is no effect, 100 is complete control); for pest or weed control at 500 g/ha: 500 g ai/ha, preemergence, visual injury rating about 10 d after treatment, 0 to 100 scale (0 no effect, 100 complete control), read-out: Ragweed plant response rating
Method in brief: as §1

[5] = tested on: ryegrass, Italian (Italian ryegrass, Lolium multiflorum); test: Test A preemergence; details: Lolium multiflorum, pre-emergence, 240 h; for pest or weed control at 125 g/ha: 125 g ai/ha, Preemergence, visual injury rating after approximately 10 d, read-out: Ryegrass, Italian plant response rating (0 to 100 scale, 0 is no effect, 100 is complete control); for pest or weed control at 500 g/ha: 500 g ai/ha, preemergence, visual injury rating about 10 d after treatment, 0 to 100 scale (0 no effect, 100 complete control), read-out: Ryegrass, Italian plant response rating
Method in brief: as §1

[6] = tested on: giant foxtail (Setaria faberii); test: Test A postemergence; details: Setaria faberi, post-emergence, 240 h, 125 g ai/ha, Postemergence; visual injury after approximately 10 d; 0 to 100 scale where 0 is no effect and 100 is complete control; read-out: Plant response rating, Foxtail, Giant
Method in brief: as §1

[7] = tested on: ragweed (common ragweed, Ambrosia elatior); test: Test A postemergence; details: Ambrosia artemisiifolia, post-emergence, 240 h, 125 g ai/ha, Postemergence; visual injury after approximately 10 d; 0 to 100 scale where 0 is no effect and 100 is complete control; read-out: Plant response rating, Ragweed
Method in brief: as §1

[8] = tested on: ryegrass, Italian (Italian ryegrass, Lolium multiflorum); test: Test A postemergence; details: Lolium multiflorum, post-emergence, 240 h, 125 g ai/ha, Postemergence; visual injury after approximately 10 d; 0 to 100 scale where 0 is no effect and 100 is complete control; read-out: Plant response rating, Ryegrass, Italian
Method in brief: as §1

[9] = tested on: wheat (Triticum aestivum); test: Test A postemergence; details: Triticum aestivum, post-emergence, 240 h, 125 g ai/ha, Postemergence; visual injury after approximately 10 d; 0 to 100 scale where 0 is no effect and 100 is complete control; read-out: Plant response rating, Wheat
Method in brief: as §1

[10] = tested on: barnyardgrass (Echinochloa crus-galli); test: Test B flooded paddy test; details: Echinochloa crus-galli, Flood, 250 g ai/ha; scale of 0 to 100 where 0 is no effect and 100 is complete control; read-out: Barnyardgrass plant response rating
Method in brief: (§2)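 Visual ratings (0 none to 100 complete control) are relative to untreated plants, taken 13–15 d after treatment in a greenhouse. Test material went straight into floodwater standing 3 cm above the soil, kept constant, on plants at the 2-leaf stage.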

[11] = tested on: ducksalad (Heteranthera limosa); test: Test B flooded paddy test; details: Heteranthera limosa, Flood, 250 g ai/ha; scale of 0 to 100 where 0 is no effect and 100 is complete control; read-out: Ducksalad plant response rating
Method in brief: as §2

rice (Oryra sativa) = test: Test B flooded paddy test; details: Oryza sativa, Flood, 250 g ai/ha; scale of 0 to 100 where 0 is no effect and 100 is complete control; read-out: Rice plant response rating
Method in brief: as §2

[12] = tested on: sedge, umbrella (small-flower umbrella sedge, Cyperus difformis); test: Test B flooded paddy test; details: Cyperus difformis, Flood, 250 g ai/ha; scale of 0 to 100 where 0 is no effect and 100 is complete control; read-out: Sedge, Umbrella plant response rating
Method in brief: as §2

Structure (SMILES) | pest or weed control at 125 g/ha (Kochia (Kochia scoparia)) [%] | pest or weed control at 500 g/ha (Kochia (Kochia scoparia)) [%] | pest or weed control at 125 g/ha [1] [%] | pest or weed control at 500 g/ha [1] [%] | pest or weed control at 125 g/ha [2] [%] | pest or weed control at 500 g/ha [2] [%] | pest or weed control at 125 g/ha [3] [%] | pest or weed control at 500 g/ha [3] [%] | pest or weed control at 125 g/ha [4] [%] | pest or weed control at 500 g/ha [4] [%] | pest or weed control at 125 g/ha [5] [%] | pest or weed control at 500 g/ha [5] [%] | pest or weed control at 125 g/ha [6] [%] | pest or weed control at 125 g/ha [7] [%] | pest or weed control at 125 g/ha [8] [%] | plant injury at 125 g/ha [9] [%] | pest or weed control at 250 g/ha [10] [%] | pest or weed control at 250 g/ha [11] [%] | pest or weed control at 250 g/ha (rice (Oryra sativa)) [%] | pest or weed control at 250 g/ha [12] [%]
O=C1NC[C@H](c2cc(C(F)(F)F)ccn2)[C@H]1C(=O)Nc1ccccc1F [Compound 948] | 0 | 0 | 70 | 90 | 70 | 90 | 0 | 0 | 0 | 0 | 0 | 0 | 70 | 0 | 0 | 0 | 0 | 0 | 0 | 0
CC(C)Oc1ccc([C@H]2CN(C)C(=O)[C@@H]2C(=O)Nc2ccc(F)cc2F)cc1 [Compound 954] | 0 | 20 | 70 | 90 | 90 | 90 | 0 | 0 | 0 | 0 | 0 | 0 | 60 | 0 | 0 | 0 | 0 | 35 | 0 | 0
CCOc1cccc([C@H]2CN(C)C(=O)[C@@H]2C(=O)Nc2cccc(F)c2F)c1 [Compound 956] | 90 | 90 | 100 | 100 | 100 | 100 | 0 | 0 | 20 | 80 | 40 | 90 | 80 | 20 | 50 | 30 | 70 | 100 | 0 | 0

Reference: patent US12077503B2, “Substituted cyclic amides and their use as herbicides” (FMC CORPORATION, priority 2015, dated 2024)
